According to patent US20170348371A1, “THE ANTI CANCEROUS, ANTIPARASITE (TOXOPLASMA GONDII (PROTOZOON) AND ANTIMICROBIAL EFFECT AND DOSAGE OF NIGELLA (NIGELLA SATIVA) EXTRACT” (priority 2014, published 2017):

Columns and labels:
Hep2 cells = assay: MTT cytotoxicity test on Hep2 cell line; assay type: cell-based, Human
Source text: The oils of the plant as an extract are used which have been obtained by cold pressing and it has been ensured that the extract is fresh and pure. The extracts that have been obtained through the whole study have been initially diluted with solvents, filtered and sterilized. […] The maximum dose and dilution sub doses that have been determined accordingly have been repeated controlled groups. Different amounts of Hep2 cells have been tested in flat bottomed 96 well plates for cell culture during the first stage of the study and it has been determined that […] cells were optimal for the monolayer layer of 2×10^4 cell per well. A pure oil of Nigella plant extract, which has been tested inside various solvents in terms of penetration into cells and homogenous distribution. MTT tests have been carried out relating to Hep2 cells in solvents too. DMSO was selected from solvents such as DMSO and Methanol and was used and cytopathic doses have not been exceeded during the whole study (FIG. 2). Essential oil has been obtained from Nigella and emulsions have been obtained from fixed oil plants (Ginger etc.) and compounds.

Toxoplasma gondii = assay: ELISA test of efficiency against Toxoplasma gondii in infected Hep2 cells; assay type: cell-based; details: for ELISA OD value according to positive control (reproduction) / ELISA value in comparison to PK: 48 hours; for ELISA value: 72 hour plates
Source text: An ELISA (Enzyme-Linked Immunosorbent Assay) test (FIG. 4) has been planned and conducted in order to determine efficiency against Toxoplasma gondii.
The ELISA test has been carried out on flat bottom well plates having 96 wells. First of all the base of the plates have been covered with a suitable amount of Hep2 cells. […] Following this all wells have been processed again with different doses (determined with MTT) of Pyrimtheamine, Sulphadiazine and Nigella Sativa extract, prepared with DMSO.
The result was read by the ELISA reader device in 30 minutes

SMILES: CCc1nc(N)nc(N)c1-c1ccc(Cl)cc1 [Pyrimethamine]
- OD value in MTT test (Hep2 cells; 1 μg/ml): 1,228
- OD value in MTT test (Hep2 cells; 2 μg/ml): 1,198
- OD value in MTT test (Hep2 cells; 4 μg/ml): 0.623
- OD value in MTT test (Hep2 cells; 8 μg/ml): 0.310
- OD value in MTT test (Hep2 cells; 16 μg/ml): 0.209
- OD value in MTT test (Hep2 cells; 32 μg/ml): 0.097
- ELISA OD value according to positive control (reproduction) (Toxoplasma gondii; 0.5 μg/ml): 75%
- ELISA OD value according to positive control (reproduction) (Toxoplasma gondii; 1 μg/ml (printed '2.1 and 0.5 μg/ml doses')): 54%
- ELISA OD value according to positive control (reproduction) (Toxoplasma gondii; 2 μg/ml (printed '2.1 and 0.5 μg/ml doses')): 56%
- ELISA OD value according to positive control (reproduction) (Toxoplasma gondii; 4 μg/ml): 45%
- ELISA value (Toxoplasma gondii; 4 μg/ml (1st dose)): 48%
- ELISA value (Toxoplasma gondii; 2nd dose of series starting from 4 μg/ml): 29%
- ELISA value (Toxoplasma gondii; 3rd dose of series starting from 4 μg/ml): 36%
- ELISA value (Toxoplasma gondii; 4th dose of series starting from 4 μg/ml): 41%
- ELISA value (Toxoplasma gondii; 5th dose of series starting from 4 μg/ml): 32%
- ELISA value (Toxoplasma gondii; 6th dose of series starting from 4 μg/ml): 27%
- ELISA value (Toxoplasma gondii; 7th dose of series starting from 4 μg/ml): 27%
- ELISA value (Toxoplasma gondii; 8th dose of series starting from 4 μg/ml): 73%

SMILES: Nc1ccc(S(=O)(=O)Nc2ncccn2)cc1 [Sulphadiazine]
- OD value in MTT test (Hep2 cells; 50 μg/ml): 1,002
- OD value in MTT test (Hep2 cells; 100 μg/ml): 0.827
- OD value in MTT test (Hep2 cells; 200 μg/ml): 0.254
- ELISA value in comparison to PK (Toxoplasma gondii; 25 μg/ml): 80%
- ELISA value in comparison to PK (Toxoplasma gondii; 50 μg/ml): 97%
- ELISA value in comparison to PK (Toxoplasma gondii; 4th dose of series from 100 μg/ml (concentration not given)): 79%
- ELISA value in comparison to PK (Toxoplasma gondii; 5th dose of series from 100 μg/ml (concentration not given)): 61%
- ELISA value in comparison to PK (Toxoplasma gondii; 6th dose of series from 100 μg/ml (concentration not given)): 95%
- ELISA value in comparison to PK (Toxoplasma gondii; 7th dose of series from 100 μg/ml (concentration not given)): 84%
- ELISA value in comparison to PK (Toxoplasma gondii; 8th dose of series from 100 μg/ml (concentration not given)): 97%
- ELISA value in comparison to PK (Toxoplasma gondii; concentration of 100 (unit not given)): 51%
- ELISA value (Toxoplasma gondii; 100 μg/ml (1st dose)): 52%
- ELISA value (Toxoplasma gondii; 2nd dose of series starting from 100 μg/ml): 57%
- ELISA value (Toxoplasma gondii; 3rd dose of series starting from 100 μg/ml): 52%
- ELISA value (Toxoplasma gondii; 4th dose of series starting from 100 μg/ml): 77%
- ELISA value (Toxoplasma gondii; 5th dose of series starting from 100 μg/ml): 75%
- ELISA value (Toxoplasma gondii; 6th dose of series starting from 100 μg/ml): 55%
- ELISA value (Toxoplasma gondii; 7th dose of series starting from 100 μg/ml): 52%
- ELISA value (Toxoplasma gondii; 8th dose of series starting from 100 μg/ml): 84%
